# Target: Stimulator of interferon genes protein [1-379,R71H,G230A,H232R,R293Q] (Homo sapiens, UniProt Q86WV6, G230A/H232R/R293Q/R71H)
# Test: 3H-cGAMP Filtration Binding Assay (HAQ STING)
# Description: Compound and membrane then preincubated for 60 min at RT to allow compound binding to equilibrate. Following equilibration, 8 nM of [3H] c-GAMP ligand was prepared by diluting into assay buffer, and 50 uL of this working stock was then manually added to each well of the assay plate. […] The filter plates were then dried at 55° C. for 30 min using a pressurized VWR oven before 30 uL of Ultima GoldF scintillate was added to each well. Tritium levels for each reaction well were then measured using a PerkinElmer TopCount plate reader.
# Stimulator of interferon genes protein [1-379,R71H,G230A,H232R,R293Q], sequence (Q86WV6 whole entry R71H/G230A/H232R/R293Q, looked up): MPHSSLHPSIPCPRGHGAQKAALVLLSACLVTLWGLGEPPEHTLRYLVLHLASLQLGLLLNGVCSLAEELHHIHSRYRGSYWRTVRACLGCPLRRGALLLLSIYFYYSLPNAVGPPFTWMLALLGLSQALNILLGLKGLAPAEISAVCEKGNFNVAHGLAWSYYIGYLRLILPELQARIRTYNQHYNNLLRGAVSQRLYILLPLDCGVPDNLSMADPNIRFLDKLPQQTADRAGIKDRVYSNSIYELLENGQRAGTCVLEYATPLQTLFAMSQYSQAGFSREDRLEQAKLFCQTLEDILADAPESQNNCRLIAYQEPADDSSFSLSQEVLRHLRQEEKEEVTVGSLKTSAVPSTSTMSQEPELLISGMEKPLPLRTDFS
row,EC50,SMILES
1,1.05 nM,"Nc1nc2c(ncn2[C@@H]2O[C@@H]3COP(=O)(S)O[C@H]4[C@H](F)[C@H](n5cnc6c(N)ncnc65)O[C@@H]4COP(=O)(O)O[C@@H]2[C@@H]3F)c(=O)[nH]1 (some centres not stated) [US11453697, Example 143]"
2,61.4 nM,"Nc1nc2c(ncn2[C@@H]2O[C@@H]3COP(=O)(S)OC4[C@@H](COP(=O)(S)O[C@H]2C3)O[C@@H](n2nnc3c(N)ncnc32)[C@H]4F)c(=O)[nH]1 (some centres not stated) [US11453697, Example 133]"

# Source: BindingDB's records for patent US11453697 (Merck Sharp & Dohme, 2022)
